Experiment [1] relates to N1E-115 cells. Put plainly: Neuritogenesis (neurite extension) in serum-starved N1E-115 cells. Type of experiment: cell-based, murine. The conditions noted are these: 48 h, PJ-34 10 μM, Paclitaxel 0.05 μM. On the procedure:
N1E-115 cells grown in serum-starved (SS) medium were evaluated to determine the extent of neurite formation after 48 h of treatment with RedBr-Nos (5 μM), Griseofulvin (10 μM), PJ-34 (10 μM), Paclitaxel (0.05 μM) treatment or untreated control cells (i.e., serum-starved medium (SS) alone). Panels Ai and Aii depict quantitative bar graphs representing the average length of neurites and percentage of population of cells showing neurite length >10 μm, respectively. A hundred cells were counted in each case. […] Panel B depicts an immunoblot showing CLASP1 expression levels in control (C) and CLASP1 siRNA-transfected N1E-115 cells.
Neuritogenesis is a process in nerve cells involving the extension of polarized, elongated neurites. N1E-115 cells usually extend only one major neurite per cell, which can vary in length from 5 to 500 μm. The growth cones of the neurites serve as primary focal points of motility. The effect of declustering agents on cell motility was evaluated by assessing the length and frequency of neurites formed in a serum-free medium on a laminin-coated surface.

The subject of experiment [2] is PLK4, Cyclin E, and Aurora A. Put plainly: Western blotting of markers of centrosome amplification. The format is cell-based. The conditions noted are these: PC3 cells, 25 μM.

With `CN(C)CC(=O)Nc1ccc2[nH]c(=O)c3ccccc3c2c1` [PJ, PJ-34], the “inhibition of neurite extension” value in experiment [1] was “moderate inhibition”. Consider reduced-9-bromonoscapine [RBN], for which the “expression of Cyclin E and PLK4” value in experiment [2] is “increased Cyclin E and PLK4 expression”.

These data come from patent US10242153B2, “Method for determining the risk profile of neoplastic tissue” (NOVAZOI THERANOSTICS, priority 2014, dated 2019).
